Results on three compounds are retold here after patent US8779146B2, “Cilostazol cocrystals and compositions” (Nuformix Limited, priority 2010, dated 2014).

Read-outs that look alike come from different tables or passages of the source.

Series [1] can be described thus: Gravimetric vapour sorption (GVS) moisture sorption isotherm. In kind it is physicochemical. The conditions noted are these: for moisture reversibly adsorbed: across the 0-90% relative humidity range at 25° C. under nitrogen; for solid form by XRPD analysis after completion of the isotherm: after GVS cycle 0-90% RH; for solid form by XRPD analysis after completion of the isotherm / hygroscopicity: 25° C.; for hygroscopicity: conclusion from GVS isotherm, 0-90% RH. The protocol:
Sorption isotherms were obtained using a SMS DVS Intrinsic moisture sorption analyser, controlled by DVS Intrinsic Control software v1.0.0.30. The sample temperature was maintained at 25° C. by the instrument controls. The humidity was controlled by mixing streams of dry and wet nitrogen, with a total flow rate of 200 ml·min^−1 The relative humidity was measured by a calibrated Rotronic probe (dynamic range of 1.0-100% RH), located near the sample. The weight change, (mass relaxation) of the sample as a function of % RH was constantly monitored by the microbalance (accuracy ±0.005 mg).
Typically 5-20 mg of sample was placed in a tared mesh stainless steel basket under ambient conditions. The sample was loaded and unloaded at 40% RH and 25° C. (typical room conditions). A moisture sorption isotherm was performed as outlined in Table 1 (2 scans giving 1 complete cycle). The standard isotherm was performed at 25° C. at 10% RH intervals over a 0.5-90% RH range. Data analysis was undertaken in Microsoft Excel using DVS Analysis Suite v6.0.0.7. The sample was recovered after completion of the isotherm and re-analyzed by XRPD.

For series [2] the following is noted: dog, in vivo, po, 100 mg.
Protocol: (§1) A crossover study was carried out using 5 male beagle dogs with a washout period of 5 days between each treatment. Prior to dosing, the dogs were fasted overnight. The capsules were accurately filled with the amount of cilostazol or the corresponding cocrystal that was equivalent to 100 mg cilostazol. The capsules were orally administered to the dogs followed by about 10 mL of water. Food (about 250 g) was provided 4 hours post-dose to all animals.
(§2) Blood samples were collected at pre-dose, 15 and 30 minutes, and 1, 2, 3, 4, 6, 8, 10, 12 and 24 hour post-dose (12 time points) following oral dose administration. Approximately 0.8 ml of whole blood was withdrawn from the cephalic vein and placed in labelled tubes containing sodium heparin as anticoagulant (20 μL of 400 IU/mL sodium heparin solution per mL of blood). Plasma was separated by centrifuging the whole blood at about 2500 g for 10 minutes at 4° C. Separated plasma was stored below −70° C. until analysis.
(§3) A fit for purpose LC-MS/MS method was used for the determination of the cilostazol concentrations in the plasma samples. Pharmacokinetic parameters from individual samples were calculated using the non-compartmental analysis tool of the WinNonlin® software (version 5.2). The area under the plasma concentration curve (AUC) was calculated using the linear trapezoidal rule. Peak plasma concentration (Cmax) and the time taken to reach the peak plasma concentration (Tmax) were the observed values.
For series [3] the following is noted: cited from earlier work.
The conditions of series [4]: low solubility, high permeability drug; cited from earlier work.
Series [5] is described as follows: Pharmacokinetic study, oral capsule, crossover, fasted beagle dogs. Particulars: male, dog, plasma, 100 mg.
Protocol: as §1, §2, §3

Take `O.O=C(O)c1cc(O)ccc1O.O=C1CCc2cc(OCCCCc3nnnn3C3CCCCC3)ccc2N1`: in series [1], the moisture reversibly adsorbed stood at 0.1 % w/w, the “solid form by XRPD analysis after completion of the isotherm” value was “unchanged” and the hygroscopicity result is listed as “not hygroscopic”.

In the case of `O=C(O)c1cc(O)ccc1O.O=C1CCc2cc(OCCCCc3nnnn3C3CCCCC3)ccc2N1` [1:1 cilostazol gentisic acid cocrystal], in series [1], the moisture reversibly adsorbed is recorded as less than 0.3 % w/w, the “solid form by XRPD analysis after completion of the isotherm” value is listed as “unchanged” and the hygroscopicity entry is “not hygroscopic”. In addition, in series [2], the AUC (usually the area under the concentration-time curve, a measure of exposure) was 1216.37 ng·h/mL; the Cmax (in general, the peak of the concentration-time curve) was 471.42 ng/mL; the Tmax (usually the time from dosing to the highest level) came to 1.00 h.

Turning to `O=C1CCc2cc(OCCCCc3nnnn3C3CCCCC3)ccc2N1` [Cilostazol, 6-[4-(1-cyclohexyl-1H-tetrazol-5-yl)butoxy]-3,4-dihydro-2(1H)-quinolinone], the solubility entry is recorded as “practically insoluble” in series [3] (in 0.1N HCl); “practically insoluble” in series [3] (in 0.1N NaOH); “slightly soluble” in series [3] (in ethanol); “slightly soluble” in series [3] (in methanol); “practically insoluble” in series [3] (in water). Besides, the BCS class entry in series [4] was “Class II”. Further, the AUC in series [5] is 371 ng·h/mL. The compound also came in with a Cmax in series [5] of 81.5 ng/mL. Further, the Tmax in series [5] came out at 2 h.
